Measurements published in patent US10787462B2, “Heterocyclic compound” (TAKEDA PHARMACEUTICAL COMPANY LIMITED, priority 2015, dated 2020).

Target: T1, human RIPK1 (1-375) (Homo sapiens, UniProt Q13546)
T1 construct: human RIPK1 (1-375) gene; GST; made in house; host or cells: Sf-9 insect cells
T1 sequence (Q13546 1-375): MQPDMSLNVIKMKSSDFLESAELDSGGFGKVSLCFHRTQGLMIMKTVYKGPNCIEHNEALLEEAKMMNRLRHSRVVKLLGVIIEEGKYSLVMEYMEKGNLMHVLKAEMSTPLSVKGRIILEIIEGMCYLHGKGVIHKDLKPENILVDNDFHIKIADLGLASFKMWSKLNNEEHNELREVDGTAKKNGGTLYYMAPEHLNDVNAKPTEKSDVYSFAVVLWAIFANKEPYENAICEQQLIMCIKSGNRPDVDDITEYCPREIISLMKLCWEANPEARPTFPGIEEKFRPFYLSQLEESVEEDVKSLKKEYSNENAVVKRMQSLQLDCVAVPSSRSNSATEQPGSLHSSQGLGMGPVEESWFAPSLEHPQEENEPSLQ
Test: Human RIPK1 enzyme inhibitory effect (ADP-Glo Kinase Assay)
Assay type: biochemical
Conditions: well without enzyme = 100% inhibition; for inhibition at 10 µM: read-out: human RIPK1 enzyme inhibitory effect at 10 μM (% inhibition), 10 μM test compound; for human RIPK1 enzyme inhibitory effect at 10 μM (% inhibition): 10 μM test compound
Procedure, shortened: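 ADP-Glo luminescence read-out of ADP formed over 120 min at room temperature after adding 0.6 mM ATP solution (stock concentration). Compound and Sf-9-expressed, GST-purified RIPK1 (1-375) were first incubated together for 20 min in HEPES pH 7.5 buffer with MgCl2, Tween-20 and DTT.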

CN1C(=O)[C@@H](N2CCc3c(nn(Cc4ccccc4)c3Cl)C2=O)COc2cc(-c3ncco3)ccc21 [Example 139, (3S)-3-(2-benzyl-3-chloro-7-oxo-2,4,5,7-tetrahydro-6H-pyrazolo[3,4-c]pyridin-6-yl)-5-methyl-8-(1,3-oxazol-2-yl)-2,3-dihydro-1,5-benzoxazepin-4(5H)-one]
inhibition at 10 µM: 100%

CN1C(=O)[C@@H](N2CCc3c(nn(Cc4ccccc4)c3CO)C2=O)COc2ccccc21 [Example 52, (3S)-3-(2-benzyl-3-(hydroxymethyl)-7-oxo-2,4,5,7-tetrahydro-6H-pyrazolo[3,4-c]pyridin-6-yl)-5-methyl-2,3-dihydro-1,5-benzoxazepin-4(5H)-one]
inhibition at 10 µM: 98%

CN1C(=O)C(N2CCc3c(nn(Cc4ccccc4F)c3Cl)C2=O)CCc2nn(C)cc21 (centres unmarked) [Example 121, 6-(3-chloro-2-(2-fluorobenzyl)-7-oxo-2,4,5,7-tetrahydro-6H-pyrazolo[3,4-c]pyridin-6-yl)-2,4-dimethyl-2,6,7,8-tetrahydropyrazolo[4,3-b]azepin-5(4H)-one]
human RIPK1 enzyme inhibitory effect at 10 μM (% inhibition): 86%

CN1C(=O)[C@@H](N2CCc3c(nn(Cc4ccccc4)c3-c3cnn(C)c3)C2=O)COc2ccccc21 [Example 169, (3S)-3-(2-benzyl-3-(1-methyl-1H-pyrazol-4-yl)-7-oxo-2,4,5,7-tetrahydro-6H-pyrazolo[3,4-c]pyridin-6-yl)-5-methyl-2,3-dihydro-1,5-benzoxazepin-4(5H)-one]
inhibition at 10 µM: 80%

CN1C(=O)[C@@H](N2CCc3c(nn(Cc4ccccc4)c3Cl)C2=O)COc2cc(-c3nccn3C)ccc21 [Example 60, (3S)-3-(2-benzyl-3-chloro-7-oxo-2,4,5,7-tetrahydro-6H-pyrazolo[3,4-c]pyridin-6-yl)-5-methyl-8-(1-methyl-1H-imidazol-2-yl)-2,3-dihydro-1,5-benzoxazepin-4(5H)-one]
inhibition at 10 µM: 100%

CCOC(=O)c1c2c(nn1Cc1ccccc1)C(=O)N([C@H]1COc3ccccc3N(C)C1=O)CC2 [Example 51, ethyl 2-benzyl-6-((3S)-5-methyl-4-oxo-2,3,4,5-tetrahydro-1,5-benzoxazepin-3-yl)-7-oxo-4,5,6,7-tetrahydro-2H-pyrazolo[3,4-c]pyridine-3-carboxylate]
inhibition at 10 µM: 99%

CN1C(=O)C(N2CCc3c(nn(Cc4ccccc4)c3Cl)C2=O)CCc2cccnc21 (centres unmarked) [Example 93, 7-(2-benzyl-3-chloro-7-oxo-2,4,5,7-tetrahydro-6H-pyrazolo[3,4-c]pyridin-6-yl)-9-methyl-5,6,7,9-tetrahydro-8H-pyrido[2,3-b]azepin-8-one]
human RIPK1 enzyme inhibitory effect at 10 μM (% inhibition): 69%

CN1C(=O)[C@@H](N2CCc3cn(CC4CC(F)(F)C4)nc3C2=O)COc2ccccc21 [Example 33, (3S)-3-(2-((3,3-difluorocyclobutyl)methyl)-7-oxo-2,4,5,7-tetrahydro-6H-pyrazolo[3,4-c]pyridin-6-yl)-5-methyl-2,3-dihydro-1,5-benzoxazepin-4(5H)-one]
inhibition at 10 µM: 95%

CN1C(=O)[C@@H](N2CCc3cn(Cc4ccc(Cl)cc4)nc3C2=O)CSc2ccccc21 [Example 150, (3R)-3-(2-(4-chlorobenzyl)-7-oxo-2,4,5,7-tetrahydro-6H-pyrazolo[3,4-c]pyridin-6-yl)-5-methyl-2,3-dihydro-1,5-benzothiazepin-4(5H)-one]
inhibition at 10 µM: 99%

COc1cccc(Cn2cc3c(n2)C(=O)N([C@H]2COc4ccccc4N(C)C2=O)CC3)c1 [Example 155, (3S)-3-(2-(3-methoxybenzyl)-7-oxo-2,4,5,7-tetrahydro-6H-pyrazolo[3,4-c]pyridin-6-yl)-5-methyl-2,3-dihydro-1,5-benzoxazepin-4(5H)-one]
inhibition at 10 µM: 97%

CN1C(=O)C(N2CCc3c(nn(Cc4ccccc4)c3Cl)C2=O)CCc2nn(C)cc21 (centres unmarked) [Example 92, 6-(2-benzyl-3-chloro-7-oxo-2,4,5,7-tetrahydro-6H-pyrazolo[3,4-c]pyridin-6-yl)-2,4-dimethyl-2,6,7,8-tetrahydropyrazolo[4,3-b]azepin-5(4H)-one]
inhibition at 10 µM: 98%

CN1C(=O)[C@@H](N2CCc3cn(CC4(C)CCC4)nc3C2=O)COc2ccccc21 [Example 173, (3S)-5-methyl-3-(2-((1-methylcyclobutyl)methyl)-7-oxo-2,4,5,7-tetrahydro-6H-pyrazolo[3,4-c]pyridin-6-yl)-2,3-dihydro-1,5-benzoxazepin-4(5H)-one]
inhibition at 10 µM: 98%

CN1C(=O)C(N2CCc3c(nn(Cc4ccccc4)c3Cl)C2=O)CCc2ccncc21 (centres unmarked) [Example 101, 3-(2-benzyl-3-chloro-7-oxo-2,4,5,7-tetrahydro-6H-pyrazolo[3,4-c]pyridin-6-yl)-1-methyl-1,3,4,5-tetrahydro-2H-pyrido[3,4-b]azepin-2-one]
inhibition at 10 µM: 97%

CN1C(=O)[C@@H](N2CCc3c(nn(Cc4ccccc4)c3Cl)C2=O)COc2ccc(C#N)cc21 [Example 145, (3S)-3-(2-benzyl-3-chloro-7-oxo-2,4,5,7-tetrahydro-6H-pyrazolo[3,4-c]pyridin-6-yl)-5-methyl-4-oxo-2,3,4,5-tetrahydro-1,5-benzoxazepine-7-carbonitrile]
inhibition at 10 µM: 101%

CCNC(=O)c1ccc2c(c1)OC[C@H](N1CCc3c(nn(Cc4ccccc4)c3Cl)C1=O)C(=O)N2C [Example 147, (3S)-3-(2-benzyl-3-chloro-7-oxo-2,4,5,7-tetrahydro-6H-pyrazolo[3,4-c]pyridin-6-yl)-N-ethyl-5-methyl-4-oxo-2,3,4,5-tetrahydro-1,5-benzoxazepine-8-carboxamide]
inhibition at 10 µM: 100%

CN1C(=O)C(n2ccc3cn(Cc4ccccc4)nc3c2=O)CCc2ccccc21 (centres unmarked) [Example 6, 3-(2-benzyl-7-oxo-2,7-dihydro-6H-pyrazolo[3,4-c]pyridin-6-yl)-1-methyl-1,3,4,5-tetrahydro-2H-1-benzazepin-2-one]
inhibition at 10 µM: 96%

CN1C(=O)[C@@H](N2CCc3c(nn(Cc4ccccc4)c3Cl)C2=O)COc2cc(-c3ccn(C)n3)ccc21 [Example 108, (3S)-3-(2-benzyl-3-chloro-7-oxo-2,4,5,7-tetrahydro-6H-pyrazolo[3,4-c]pyridin-6-yl)-5-methyl-8-(1-methyl-1H-pyrazol-3-yl)-2,3-dihydro-1,5-benzoxazepin-4(5H)-one]
inhibition at 10 µM: 100%

CN1C(=O)C(N2CCc3c(nn(Cc4ccccc4)c3Cl)C2=O)CCc2cnccc21 (centres unmarked) [Example 99, 3-(2-benzyl-3-chloro-7-oxo-2,4,5,7-tetrahydro-6H-pyrazolo[3,4-c]pyridin-6-yl)-1-methyl-1,3,4,5-tetrahydro-2H-pyrido[4,3-b]azepin-2-one]
human RIPK1 enzyme inhibitory effect at 10 μM (% inhibition): 98%

CN1C(=O)C(N2CCc3c(nn(Cc4ccccc4F)c3Cl)C2=O)CCc2c1cnn2C (centres unmarked) [Example 129, 6-(3-chloro-2-(2-fluorobenzyl)-7-oxo-2,4,5,7-tetrahydro-6H-pyrazolo[3,4-c]pyridin-6-yl)-1,4-dimethyl-4,6,7,8-tetrahydropyrazolo[4,3-b]azepin-5(1H)-one]
inhibition at 10 µM: 98%

CN1C(=O)[C@@H](N2CCn3cc(Cc4ccccc4)nc3C2=O)COc2ccccc21 [Example 7, (3S)-3-(2-benzyl-8-oxo-5,6-dihydroimidazo[1,2-a]pyrazin-7(8H)-yl)-5-methyl-2,3-dihydro-1,5-benzoxazepin-4(5H)-one]
inhibition at 10 µM: 91%

CN1C(=O)[C@@H](N2CCc3cn(Cc4ccoc4)nc3C2=O)COc2ccccc21 [Example 34, (3S)-3-(2-(3-furylmethyl)-7-oxo-2,4,5,7-tetrahydro-6H-pyrazolo[3,4-c]pyridin-6-yl)-5-methyl-2,3-dihydro-1,5-benzoxazepin-4(5H)-L-one]
inhibition at 10 µM: 99%

COc1c2c(nn1Cc1ccccc1)C(=O)N([C@H]1COc3ccccc3N(C)C1=O)CC2 [Example 48, (3S)-3-(2-benzyl-3-methoxy-7-oxo-2,4,5,7-tetrahydro-6H-pyrazolo[3,4-c]pyridin-6-yl)-5-methyl-2,3-dihydro-1,5-benzoxazepin-4(5H)-one]
inhibition at 10 µM: 98%

CN1C(=O)[C@@H](N2CCc3cn(Cc4cccc(Cl)c4)nc3C2=O)COc2ccccc21 [Example 26, (3S)-3-(2-(3-chlorobenzyl)-7-oxo-2,4,5,7-tetrahydro-6H-pyrazolo[3,4-c]pyridin-6-yl)-5-methyl-2,3-dihydro-1,5-benzoxazepin-4(5H)-one]
inhibition at 10 µM: 100%
